We go through one molecule from patent US20060193895A1, “Additive for food and beverage, pharmaceutical composition, GLUT4 translocator, and method for translocating GLUT4” (Use-Techno Corporation, priority 2005, published 2006).

Assay type in all cases: in vivo
In assay [1] the test system is KK-Ay mice. In words: Blood sugar level in KK-Ay mouse with administration of corosolic acid. As to conditions: oral administration. As to the method: KK-Ay mice (CLEA JAPAN, INC.) which are the model animals for Type II diabetes were employed for test animals. These KK-Ay mice aged 6 to 10 weeks, having 300 mg/dL of blood sugar level. Corosolic acid which was extracted from Banaba leaves and purified was forcefully administrated to these KK-Ay mice using an injection syringe and an oral sound for mouse. Blood samples were collected at 2, 4 and 7 hours after the administration using the orbital vein blood sampling method, and the blood sugar levels were determined by the glucose oxidase method. Blood sugar levels were measured on four KK-Ay mice. The measured values were used to calculate an average, which was evaluated by the Student's t-test. […] FIG. 1 describes the blood sugar level data as average value± standard error. The p-value of 0.05 or below in the Student's t-test was rated to be significant (the significance is shown with * mark in the Figure: the same is applied hereinafter).

The test system of assay [2] is ddY mice. In words: Blood sugar level of ddY mouse by administration of corosolic acid. The settings on record: ddY normal mice, oral administration, 2, 4, and 7 hours after the administration. As to the method:
KK-Ay mice (CLEA JAPAN, INC.) which are the model animals for Type II diabetes were employed for test animals. These KK-Ay mice aged 6 to 10 weeks, having 300 mg/dL of blood sugar level. Corosolic acid which was extracted from Banaba leaves and purified was forcefully administrated to these KK-Ay mice using an injection syringe and an oral sound for mouse. Blood samples were collected at 2, 4 and 7 hours after the administration using the orbital vein blood sampling method, and the blood sugar levels were determined by the glucose oxidase method. Blood sugar levels were measured on four KK-Ay mice. The measured values were used to calculate an average, which was evaluated by the Student's t-test. […] FIG. 1 describes the blood sugar level data as average value± standard error. The p-value of 0.05 or below in the Student's t-test was rated to be significant (the significance is shown with * mark in the Figure: the same is applied hereinafter). Blood sugar level was determined by the same procedure as described in the above “Blood sugar level in KK-Ay mouse by administration of corosolic acid”, except that the ddY mice which are the normal mice (Japan SLC, Inc.) were employed instead of the KK-Ay mice which are the model animals for Type II diabetes.

Assay [3] concerns KK-Ay mice. As to the kind of experiment: Serum insulin value in KK-Ay mouse with administration of corosolic acid. As to conditions: after 4 hours from the administration, vs group without corosolic acid. As to the method:
On the KK-Ay mouse groups with or without corosolic acid administrated in “Blood sugar level in KK-Ay mouse by administration of corosolic acid” described above, the serum insulin values were measured after 4 hours from the administration. The serum insulin values were measured by the enzyme 2-antibody method. The measured data were rated by the Student's t-test to determine whether or not they had significant differences according to the same criterion as above.

The subject of assay [4] is glucose transporter type 4 (GLUT4). As to the kind of experiment: Effect of corosolic acid on GLUT4 in mouse skeletal muscle (western blotting of PM and LDM fractions). The settings on record: KK-Ay mice, after 4 hours from the administration. The procedure: The intake of sugar into cells is conducted by a carrier protein in the transporting system on cell membrane, called glucose transporter (GLUT). Muscle has glucose transporter type 1 (GLUT1) and glucose transporter type 4 (GLUT4). […] This change in location within a cell is called GLUT4 translocation. It is speculated that significant increase of glucose in muscle and fat tissues is mainly due to the translocation of GLUT4. In view of this point, the effect of corosolic acid on GLUT4 was studied. First, the low density microsome (LDM) fraction and the plasma membrane (PM) fraction were prepared using the sucrose concentration gradient in accordance with the method of Klip et al. (FEBS Lett., 224, 224-230 (1987), Biochem. Biophys. Res. Commum., 172, 728-736 (1990)). On the KK-Ay mouse groups with or without corosolic acid administrated, the relative quantities of GLUT4 in the PM fraction and the LDM fraction were determined after 4 hours from the administration using the western blotting analysis.
For orientation: A western blot detects proteins with antibodies after separation by electrophoresis.

Each structure is given as a SMILES string.

As for `C[C@H]1[C@H](C)CC[C@]2(C(=O)O)CC[C@]3(C)C(=CC[C@@H]4[C@@]5(C)C[C@@H](O)[C@H](O)C(C)(C)[C@@H]5CC[C@]43C)[C@H]12` [corosolic acid], the blood sugar level result in assay [1] (after 4 hours from the administration) was “about 280 mg/dL”. The “change in blood sugar level” value in assay [1] (during 4 hours after the administration, vs control, Student's t-test) is listed as “significantly decreases”. In addition, in assay [2], the “change in blood sugar level” value is recorded as “No significant difference”. The serum insulin value entry in assay [3] was “no significant difference”. Further, in assay [4], the “relative quantity of GLUT4 in the LDM fraction” value is reported as “decreased the GLUT4 of low density microsome” and the “relative quantity of GLUT4 in the PM fraction” value was “increased it in the plasma membrane fraction”.
